Experimental findings from patent US6316194A, “Methods and kits for discovery of RNA-binding antimicrobials” (Ribotargets, priority 1999, dated 2001) are described below.

The experiment has as its system DABCYL-A site RNA (25 nucleotide model of the 16S rRNA A site, SEQ ID No. 1). Briefly: Competitive inhibition of paramomycin-TAMRA binding to DABCYL-A site RNA by unlabelled antibiotic (FRET, 96-well plate reader). To be noted: 25 nM paramomycin-TAMRA. How it is done:
Binding of paramomycin-TAMRA to A site RNA was measured in a fluorescent plate reader. Measurements were made in a 96-well plate reader (Wallac victor) with a fixed wavelength of 544 nm and emission at 590 nm. I0 was determined by an initial measurement of a 95 μL solution of 25 nM paramomycin-TAMRA in the presence of 50 mM Tris-HCl pH7.5, 80 mM KCl, 0.1% DMSO 0.00007% Triton X-100 and 0.5 ug/mL BSA presence of 10 μM Neomycin. I (the final measurement) was then measured following the addition of 5 μL of a 20×DABCYL-A site RNA stock solution (corresponding to the amounts shown in the figure).
Binding of paramomycin-TAMRA to A site RNA was measured in a fluorescent plate reader. Measurements were made in a 96-well plate reader (Wallac victor) with a fixed wavelength of 544 nm and emission at 590 nm. I0 was determined by an initial measurement of a 95 μL solution of 25 nM paramomycin-TAMRA in the presence of 50 mM Tris-HCl pH7.5, 80 mM KCl, 0.1% DMSO 0.00007% Triton X-100 and 0.5 ug/mL BSA presence of 15 μM Neomycin. I (the final measurement) was then measured following the addition of 5 μL of a 20×DABCYL-A site RNA stock solution (corresponding to the amounts shown in FIG. 9). […]

As to `NC[C@@H]1O[C@H](O[C@H]2[C@@H](O)[C@H](O[C@@H]3[C@@H](O)[C@H](N)C[C@H](N)[C@H]3O[C@H]3O[C@H](CO)[C@@H](O)[C@H](O)[C@H]3N)O[C@@H]2CO)[C@H](N)[C@@H](O)[C@@H]1O` [paramomycin], where the note is “15 μM Paramomycin (heading)”, the “Inhibition of paramomycin-TAMRA to A site binding” value is listed as “competitive inhibitor”.

As to Neomycin, the “Inhibition of paramomycin-TAMRA to A site binding” value (10 μM Neomycin) was “a reduction in fluorescence in the presence of the neomycin competitor was observed”.
